Test results reported in PubChem BioAssay (NCI).
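Compound exposure: 48 hours, 5 concentrations, 96-well plates. GI50: concentration for 50% inhibition of growth. At the TGI there is no net growth.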

What was measured:
Test in all cases: NCI tumour cell line growth inhibition, 48 h
HOP-92 NSCLC = tested on: HOP-92 NSCLC
DU-145 prostate = tested on: DU-145 prostate
U251 CNS = tested on: U251 CNS
NCI-H226 lung = tested on: NCI-H226 lung
HS 578T breast = tested on: HS 578T breast
HCC-2998 colon = tested on: HCC-2998 colon
MALME-3M melanoma = tested on: MALME-3M melanoma
K-562 leukemia = tested on: K-562 leukemia
NCI-H522 lung = tested on: NCI-H522 lung
HOP-62 NSCLC = tested on: HOP-62 NSCLC

SMILES	GI50 (HOP-92 NSCLC) [µM]	TGI (HOP-92 NSCLC) [µM]	GI50 (DU-145 prostate) [µM]	TGI (DU-145 prostate) [µM]	GI50 (U251 CNS) [µM]	TGI (U251 CNS) [µM]	GI50 (NCI-H226 lung) [µM]	TGI (NCI-H226 lung) [µM]	GI50 (HS 578T breast) [µM]	TGI (HS 578T breast) [µM]	GI50 (HCC-2998 colon) [µM]	TGI (HCC-2998 colon) [µM]	GI50 (MALME-3M melanoma) [µM]	TGI (MALME-3M melanoma) [µM]	GI50 (K-562 leukemia) [µM]	TGI (K-562 leukemia) [µM]	GI50 (NCI-H522 lung) [µM]	TGI (NCI-H522 lung) [µM]	GI50 (HOP-62 NSCLC) [µM]	TGI (HOP-62 NSCLC) [µM]
c1ccc(-c2nn3c(c2-c2ccnc4cc(OCCN5CCOCC5)ccc24)CCC3)nc1	> 68.9	> 100	75.2	> 100	97.3	> 100	> 81.2	> 100	> 100	> 100	> 100	> 100	90.3	> 100	30.3	> 100	44.8	> 100	99.4	> 100
COc1ccc2c(c1)nc(NNC(=O)c1cnccn1)c1cccn12	0.952	3.22	0.156	6.3	0.132	2.86	0.321	2.72	1.66	11.1	1.05	2.43	1.06	2.93	0.393	> 100	0.393	5.37	0.0961	3.33
CN(C)C(=O)Nc1nc2cc(Cl)c(Cl)cc2[nH]1	16.1	> 100	2.02	24.9	0.636	> 51.1	2.83	> 100	1.26	> 55.1	2.5	> 47.1	3.22	87.3	0.41	> 33.8	0.38	4.14	3.84	> 50.7
